Values of other authors in patent US6964965B2, “Substituted pyrazine derivatives” (Pharmacia & Upjohn, priority 2002, dated 2005).

Key:
[1] = test system: human epidermal keratinocyte cells; conditions: cultured human epidermal keratinocyte cells
CRF = conditions: for effect on the “anxiogenic” effects / actions of CRF in the conflict test: conflict test (operant conflict test)

| SMILES | keratinocyte cell proliferation promoting effect [1] | effect on the “anxiogenic” effects / actions of CRF in the conflict test (CRF) | behavioral activity of the substance alone in the operant conflict test (CRF; alone, without CRF) |
| --- | --- | --- | --- |
| CCN(c1nc(C)cc(N2CC=C(c3cccc(F)c3)CC2)n1)c1ccc(C(C)C)cc1SC [2-[N-(2-methylthio-4-isopropylphenyl)-N-ethylamino]-4-[4-(3-fluorophenyl)-1,2,3,6-tetrahydropyridine-1-yl]-6-methylpyrimidine] | showed keratinocyte cell proliferation promoting effect |  |  |
| CNC(=O)c1cc2c(cn1)[nH]c1ccccc12 [FG 7142] |  | enhanced the actions of CRF |  |
| CCOC(=O)c1ncn2c1CN(C)C(=O)c1cc(F)ccc1-2 [Ro 15-1788] |  | reversed the effects of CRF in a dose-dependent manner | without behavioral activity alone |
